Data reported in patent publication US20100113465A1, “7-AZASPIRO[3.5]NONANE-7-CARBOXAMIDE COMPOUNDS” (Pfizer Inc., priority 2008, published 2010).
Marks after values point to notes of the source that are not given here.

Tests used:
human FAAH = target: T1, human FAAH (Homo sapiens, UniProt O00519); assay: FAAH assay, human FAAH enzyme inhibition (kinact/Ki); type: biochemical; details: oleamide substrate 50 μM, 30° C., read-out: hFAAH kinact/Ki
T1 construct: made in house; host or cells: E. coli
T1 sequence (O00519 1-579): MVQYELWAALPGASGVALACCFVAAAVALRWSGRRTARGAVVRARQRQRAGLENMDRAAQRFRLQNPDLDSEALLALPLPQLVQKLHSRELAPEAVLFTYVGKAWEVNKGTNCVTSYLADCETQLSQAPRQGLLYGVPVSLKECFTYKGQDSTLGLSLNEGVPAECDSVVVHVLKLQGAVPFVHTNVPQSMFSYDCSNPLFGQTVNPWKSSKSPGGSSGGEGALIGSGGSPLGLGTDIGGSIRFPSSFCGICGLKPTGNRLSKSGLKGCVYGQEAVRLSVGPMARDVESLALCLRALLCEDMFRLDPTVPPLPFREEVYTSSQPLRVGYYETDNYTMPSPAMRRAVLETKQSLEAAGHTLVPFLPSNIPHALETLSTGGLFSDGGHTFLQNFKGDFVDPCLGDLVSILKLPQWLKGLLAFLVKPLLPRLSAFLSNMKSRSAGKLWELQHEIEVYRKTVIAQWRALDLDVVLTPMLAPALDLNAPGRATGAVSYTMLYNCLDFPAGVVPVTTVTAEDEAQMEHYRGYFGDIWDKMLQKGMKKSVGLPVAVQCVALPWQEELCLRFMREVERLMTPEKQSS
How it was run: (§1)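 Purified E. coli-expressed FAAH (1-4 nM) with oleamide at Km (50 μM), coupled GDH/NADH read at 340 nm over 90 min, 30° C, pH 7.4, 7.5% DMSO and EtOH. kobs from mono-exponential fits; kinact/Ki from kobs vs inhibitor slope, multiplied by two.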

rat FAAH = target: T2, rat FAAH (Rattus norvegicus, UniProt P97612); assay: FAAH assay, rat FAAH enzyme inhibition (kinact/Ki); type: biochemical; details: oleamide substrate 50 μM, 30° C., read-out: rFAAH kinact/Ki
T2 construct: made in house; host or cells: E. coli
T2 sequence (P97612 1-579): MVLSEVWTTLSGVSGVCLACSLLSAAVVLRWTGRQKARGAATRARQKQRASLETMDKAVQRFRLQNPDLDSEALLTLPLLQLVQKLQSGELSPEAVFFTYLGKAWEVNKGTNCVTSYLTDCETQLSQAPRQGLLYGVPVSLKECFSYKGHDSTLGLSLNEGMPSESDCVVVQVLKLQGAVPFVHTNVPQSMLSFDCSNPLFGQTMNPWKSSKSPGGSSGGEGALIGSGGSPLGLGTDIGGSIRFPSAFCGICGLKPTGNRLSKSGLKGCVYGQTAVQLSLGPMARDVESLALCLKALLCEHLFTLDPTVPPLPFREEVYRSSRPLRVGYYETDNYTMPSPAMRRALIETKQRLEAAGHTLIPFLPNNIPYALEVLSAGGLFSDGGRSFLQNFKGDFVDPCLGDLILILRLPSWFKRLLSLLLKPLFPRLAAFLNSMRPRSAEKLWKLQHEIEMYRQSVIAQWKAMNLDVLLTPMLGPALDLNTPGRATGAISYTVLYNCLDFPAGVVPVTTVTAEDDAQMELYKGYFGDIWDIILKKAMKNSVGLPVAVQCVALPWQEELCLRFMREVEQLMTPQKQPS
How it was run: as §1

Male Sprague-Dawley Rats [1] = assay: In vivo Complete Freund's Adjuvant (CFA) efficacy assay; set-up: species or system rat; key: (+) indicates the test compound was determined to be efficacious at 3 mpk, oral dosing; (−) indicates the test compound was determined to not be efficacious at 3 mpk, oral dosing; details: inhibition of allodynia vs vehicle, p<0.05
Male Sprague-Dawley Rats [2] = assay: as above; set-up: species or system rat; key: (+) indicates the test compound was determined to be efficacious at 3 mpk, oral dosing; (−) indicates the test compound was determined to not be efficacious at 3 mpk, oral dosing; details: 3 mpk, oral dosing; inhibition of allodynia (PWT) four hours postdose vs vehicle, p<0.05
Procedure: For additional information on the CFA efficacy assay, see Jayamanne et al., Brit. J. Pharmacol. 2006, 147, 281-288. Experiments were performed on adult Male Sprague-Dawley Rats (200 g-250 g). Inflammation was induced in the left hindpaw of the rat by an intra-plantar injection of 150 uL Complete Freund's Adjuvant (CFA) (SIGMA F5881). The CFA injection immediately induces local inflammation, paw swelling, and pain that persists for at least two weeks post-injection. Baseline paw withdrawal threshold (PWT) was measured to determine the percent inhibition of allodynia using a set of Von Frey Hairs on day 4 post injection as illustrated by the Dixon Up and Down Method (W. J. Dixon, Ann. Rev. Pharmacol. Toxicol. 1980, 20:441-462). […] Test compound was administered at a concentration of 3 mg/kg (mpk) orally with the dosing vehicle 5% N,N′-Dimethylacetamide (SIGMA D137510) and 95% (40% 2-hydroxypropyl-beta-cyclodextrin in water) (SIGMA H107). Following Dose administration PWT threshold was evaluated again at four hours postdose. The Sprague-Dawley rats used in this assay were purchased from Harlan, 8520 Allison Pointe Blvd., Indianapolis, Ind., 46250, U.S.A. Sprague-Dawley rats are an outbred breed of albino rats first produced by the Sprague Dawley farms in Madison, Wis., U.S.A.
Percent Inhibition of Allodynia was determined by the formula: […]
ΔPWT measurements were averaged for each treatment group and statistical comparisons between groups were made using ANOVA and Dunnett's two-tailed test. […]

kinact/KI (human FAAH) [M⁻¹ s⁻¹] | kinact/KI (rat FAAH) [M⁻¹ s⁻¹] | SMILES | CFA Efficacy (Male Sprague-Dawley Rats [1]; 10 mpk, intraperitoneal dosing) | CFA Efficacy (Male Sprague-Dawley Rats [1]; 1 mpk, oral dosing) | CFA Efficacy (Male Sprague-Dawley Rats [1]; 25 mpk, intraperitoneal dosing) | CFA Efficacy (Male Sprague-Dawley Rats [2])
2190 | 741 | COc1cccc(C2CC3(CCN(C(=O)Nc4onc(C)c4C)CC3)C2)c1 [Example 5, N-(3,4-dimethylisoxazol-5-yl)-2-(3-methoxyphenyl)-7-azaspiro[3.5]nonane-7-carboxamide] | (+)^c | – | – | –
2450 | 1430 | O=C(Nc1cccnn1)N1CCC2(CC1)CC(c1cccc(Oc3ncc(Br)cn3)c1)C2 [Example 9, 2-{3-[(5-bromopyrimidin-2-yl)oxy]phenyl}-N-pyridazin-3-yl-7-azaspiro[3.5]nonane-7-carboxamide] | (+)^c | – | – | –
2870 | 1620 | Cc1cccc(C2CC3(CCN(C(=O)Nc4onc(C)c4C)CC3)C2)c1 [Example 7, N-(3,4-dimethylisoxazol-5-yl)-2-(3-methylphenyl)-7-azaspiro[3.5]nonane-7-carboxamide] | – | (−)^e | – | –
1030 | 4920 | O=C(Nc1noc2ccccc12)N1CCC2(CC1)CC(c1cccc(Oc3ccc(C(F)(F)F)cn3)c1)C2 [Example 3, N-1,2-benzisoxazol-3-yl-2-(3-{[5-(trifluoromethyl)pyridin-2-yl]oxy}phenyl)-7-azaspiro[3.5]nonane-7-carboxamide] | – | (−) | (+) | –
1570 | 647 | O=C(Nc1cccnn1)N1CCC2(CC1)CC(c1cccc(Oc3ccc(C(F)(F)F)cn3)c1)C2 [Example 1, N-pyridazin-3-yl-2-(3-{[5-(trifluoromethyl)pyridin-2-yl]oxy}phenyl)-7-azaspiro[3.5]nonane-7-carboxamide] | (−)^c | – | – | –
2040 | 1820 | O=C(Nc1cccnn1)N1CCC2(CC1)CC(c1cccc(Oc3ccc(Br)cn3)c1)C2 [Example 10, 2-{3-[(5-bromopyridin-2-yl)oxy]phenyl}-N-pyridazin-3-yl-7-azaspiro[3.5]nonane-7-carboxamide] | (−)^c | – | – | –
3060 | 3690 | Cc1noc(NC(=O)N2CCC3(CC2)CC(c2cccc(C(F)(F)F)c2)C3)c1C [Example 6, N-(3,4-dimethylisoxazol-5-yl)-2-[3-(trifluoromethyl)phenyl]-7-azaspiro[3.5]nonane-7-carboxamide] | – | (−)^e | – | –
1760 | 9460 | Cc1noc(NC(=O)N2CCC3(CC2)CC(c2cccc(Oc4ccc(C(F)(F)F)cn4)c2)C3)c1C [Example 2, N-(3,4-dimethylisoxazol-5-yl)-2-(3-{[5-(trifluoromethyl)pyridin-2-yl]oxy}phenyl)-7-azaspiro[3.5]nonane-7-carboxamide] | – | – | (+)^d | –
2640 | 1560 | Cc1cc(F)cc(C2CC3(CCN(C(=O)Nc4onc(C)c4C)CC3)C2)c1 [Example 18, N-(3,4-dimethylisoxazol-5-yl)-2-(3-fluoro-5-methylphenyl)-7-azaspiro[3.5]nonane-7-carboxamide] | – | – | – | (−)
2820 | 1920 | Cc1ccc(C2CC3(CCN(C(=O)Nc4onc(C)c4C)CC3)C2)cc1C [Example 8, N-(3,4-dimethylisoxazol-5-yl)-2-(3,4-dimethylphenyl)-7-azaspiro[3.5]nonane-7-carboxamide] | – | (−)^e | – | –
13900 | 1920 | Cn1nnnc1NC(=O)N1CCC2(CC1)CC(F)(c1cccc(OC(F)(F)F)c1)C2 [Example 53, 2-fluoro-N-(1-methyl-1H-tetrazol-5-yl)-2-[3-(trifluoromethoxy)phenyl]-7-azaspiro[3.5]nonane-7-carboxamide] | – | – | – | (+)
5240 | 552 | Cn1nnnc1NC(=O)N1CCC2(CC1)CC(c1noc(-c3ccc(C(F)(F)F)cc3)n1)C2 [Example 49, N-(1-methyl-1H-tetrazol-5-yl)-2-{5-[4-(trifluoromethyl)phenyl]-1,2,4-oxadiazol-3-yl}-7-azaspiro[3.5]nonane-7-carboxamide] | – | – | – | (+)
3240 | 2340 | Cc1noc(NC(=O)N2CCC3(CC2)CC(c2cccc(C(F)(F)F)c2F)C3)c1C [Example 30, N-(3,4-dimethylisoxazol-5-yl)-2-[2-fluoro-3-(trifluoromethyl)phenyl]-7-azaspiro[3.5]nonane-7-carboxamide] | – | – | – | (+)
2830 | 3860 | Cc1noc(NC(=O)N2CCC3(CC2)CC(c2cccc(OC(F)(F)F)c2)C3)c1C [Example 4, N-(3,4-dimethylisoxazol-5-yl)-2-[3-(trifluoromethoxy)phenyl]-7-azaspiro[3.5]nonane-7-carboxamide] | – | – | – | (+)
